Measured values: the supplement of paper PMC13380429

Experiments:
Conditions in all cases: 72 h
[1] = tested on: HepG2; assay: relative viability EC50 (midpoint between 100% and the lowest measured viability); higher = less toxic
[2] = tested on: Vero E6; assay: as above
[3] = tested on: HepG2; assay: drug sensitivity score (DSS) for viability; higher = more toxic; extreme values may be limits of the assay
[4] = tested on: Vero E6; assay: as above
[5] = tested on: Caco-2; assay: as above
[6] = tested on: U2OS; assay: as above
[7] = tested on: Calu-3; assay: as above
[8] = tested on: HepG2; assay: cell viability relative to DMSO; higher = less toxic
[9] = tested on: Vero E6; assay: as above
[10] = tested on: Caco-2; assay: as above
[11] = tested on: U2OS; assay: as above
[12] = tested on: Calu-3; assay: as above
[13] = tested on: U2OS; assay: relative viability EC50 (midpoint between 100% and the lowest measured viability); higher = less toxic

| SMILES | relative viability EC50 [1] [µM] | relative viability EC50 [2] [nM] | drug sensitivity score [3] | drug sensitivity score [4] | drug sensitivity score [5] | drug sensitivity score [6] | drug sensitivity score [7] | cell viability ([8]; 1 nM) [%] | cell viability ([8]; 10 nM) [%] | cell viability ([8]; 100 nM) [%] | cell viability ([8]; 1000 nM) [%] | cell viability ([8]; 10000 nM) [%] | cell viability ([9]; 1 nM) [%] | cell viability ([9]; 10 nM) [%] | cell viability ([9]; 100 nM) [%] | cell viability ([9]; 1000 nM) [%] | cell viability ([9]; 10000 nM) [%] | cell viability ([10]; 1 nM) [%] | cell viability ([10]; 10 nM) [%] | cell viability ([10]; 100 nM) [%] | cell viability ([10]; 1000 nM) [%] | cell viability ([10]; 10000 nM) [%] | cell viability ([11]; 1 nM) [%] | cell viability ([11]; 10 nM) [%] | cell viability ([11]; 100 nM) [%] | cell viability ([11]; 1000 nM) [%] | cell viability ([11]; 10000 nM) [%] | cell viability ([12]; 1 nM) [%] | cell viability ([12]; 10 nM) [%] | cell viability ([12]; 100 nM) [%] | cell viability ([12]; 1000 nM) [%] | cell viability ([12]; 10000 nM) [%] | relative viability EC50 [13] [µM] |
| --- | --- | --- | --- | --- | --- | --- | --- | --- | --- | --- | --- | --- | --- | --- | --- | --- | --- | --- | --- | --- | --- | --- | --- | --- | --- | --- | --- | --- | --- | --- | --- | --- | --- |
| COc1cc(/C=C/c2ccc(OC)cc2OC)cc(OC)c1 [TMS] | 1.94 | 2080 | 4.3 | 5 | 4.2 | 2.4 | 1.4 | 98.7 | 94.7 | 96.1 | 91.5 | 46.2 | 93.6 | 95.5 | 94.7 | 91.3 | 35 | 86.4 | 97.6 | 81.6 | 92.4 | 55.5 | 98.8 | 107 | 94.1 | 101 | 52.5 | 97 | 99.6 | 92.6 | 106 | 62.8 | – |
| NCC1OC(C23CC4CC(CC(C4)C2)C3)Cc2c1ccc(O)c2O (stereo unspecified) | 3.26 | – | 4 | 2 | 4 | 0 | 2.6 | 101 | 95.9 | 103 | 101 | 26.5 | 94 | 97.3 | 96 | 100 | 58.8 | 114 | 86.9 | 94.3 | 85.1 | 54.4 | 102 | 100 | 99 | 94.9 | 92.5 | 106 | 98.1 | 100 | 94.2 | 65.3 | > 10 |
| COc1cc2c(cc1O)CC[C@@H]1[C@@H]2CC[C@]2(C)[C@@H](O)CC[C@@H]12 [2-methoxyestradiol] | 3.99 | 2500 | 2.8 | 4.3 | 4.9 | 5.9 | 2.1 | 96.1 | 99.9 | 91.7 | 115 | 33.8 | 99.6 | 97.8 | 98.9 | 94.8 | 36.2 | 99.1 | 105 | 101 | 77.4 | 58.1 | 96.4 | 95.1 | 102 | 77.8 | 46.5 | 103 | 107 | 106 | 98.9 | 60.2 | 1.15 |
| O=C(NOCCO)c1cc(CN2OCCCC2=O)c(F)c(F)c1Nc1ccc(I)cc1F | – | – | 26.2 | 15 | 13.5 | 4.9 | 15.9 | 100 | 70 | 34 | 19 | 21.6 | 89.3 | 85.2 | 61.2 | 50.7 | 50.4 | 88.1 | 76.9 | 67.9 | – | 68.2 | 97.2 | 92.9 | 90.1 | 87.4 | 43.7 | 96 | 92.1 | 61.7 | 43.4 | 32.7 | – |
| Cc1cc(CC(C)CC(C)(C)C)n(O)c(=O)c1 (stereo unspecified) [piroctone-olamine] | > 10 | > 10000 | 0 | 0 | 1.8 | 4.2 | 3.4 | 97.6 | 102 | 102 | 110 | 93.3 | 102 | 96.1 | 104 | 95.5 | 108 | 100 | 96.3 | 103 | 97.6 | 68 | 95.1 | 93.9 | 100 | 88 | 54.8 | 98 | 97.1 | 102 | 80 | 72.4 | – |
| CCOC(=O)c1ccc(N2NC(=O)/C(=C/c3ccc([N+](=O)[O-])o3)C2=O)cc1 [PYR-41] | > 10 | > 10000 | 0.1 | 0.1 | 2.6 | 1.8 | 5.7 | 112 | 99.7 | 94.4 | 105 | 84.9 | 103 | 103 | 99.2 | 101 | 85.7 | 96 | 100 | 95.1 | 85 | 71.2 | 93.5 | 98.3 | 101 | 93.4 | 75.5 | 85.5 | 101 | 92.2 | 71.6 | 62 | > 10 |
